# Results published in EP0428423A2, “Aryloxy alkyl benzenes, processes for their preparation and pharmaceutical compositions containing them” (LIPHA S.A., priority 1989, dated 1991).
# Columns and labels:
# [1] = target: T1, COTRANSPORT Na-K (Homo sapiens, UniProt P55011); assay: Na-K cotransport of human erythrocytes; assay type: cell-based, ERYTHROCYTES HUMAINS; settings: human erythrocytes
# T1 construct: systèmes de transport du sodium et du potassium des érythrocytes humains; endogenous in cells; host or cells: human erythrocytes
# T1 sequence (P55011 1-1212): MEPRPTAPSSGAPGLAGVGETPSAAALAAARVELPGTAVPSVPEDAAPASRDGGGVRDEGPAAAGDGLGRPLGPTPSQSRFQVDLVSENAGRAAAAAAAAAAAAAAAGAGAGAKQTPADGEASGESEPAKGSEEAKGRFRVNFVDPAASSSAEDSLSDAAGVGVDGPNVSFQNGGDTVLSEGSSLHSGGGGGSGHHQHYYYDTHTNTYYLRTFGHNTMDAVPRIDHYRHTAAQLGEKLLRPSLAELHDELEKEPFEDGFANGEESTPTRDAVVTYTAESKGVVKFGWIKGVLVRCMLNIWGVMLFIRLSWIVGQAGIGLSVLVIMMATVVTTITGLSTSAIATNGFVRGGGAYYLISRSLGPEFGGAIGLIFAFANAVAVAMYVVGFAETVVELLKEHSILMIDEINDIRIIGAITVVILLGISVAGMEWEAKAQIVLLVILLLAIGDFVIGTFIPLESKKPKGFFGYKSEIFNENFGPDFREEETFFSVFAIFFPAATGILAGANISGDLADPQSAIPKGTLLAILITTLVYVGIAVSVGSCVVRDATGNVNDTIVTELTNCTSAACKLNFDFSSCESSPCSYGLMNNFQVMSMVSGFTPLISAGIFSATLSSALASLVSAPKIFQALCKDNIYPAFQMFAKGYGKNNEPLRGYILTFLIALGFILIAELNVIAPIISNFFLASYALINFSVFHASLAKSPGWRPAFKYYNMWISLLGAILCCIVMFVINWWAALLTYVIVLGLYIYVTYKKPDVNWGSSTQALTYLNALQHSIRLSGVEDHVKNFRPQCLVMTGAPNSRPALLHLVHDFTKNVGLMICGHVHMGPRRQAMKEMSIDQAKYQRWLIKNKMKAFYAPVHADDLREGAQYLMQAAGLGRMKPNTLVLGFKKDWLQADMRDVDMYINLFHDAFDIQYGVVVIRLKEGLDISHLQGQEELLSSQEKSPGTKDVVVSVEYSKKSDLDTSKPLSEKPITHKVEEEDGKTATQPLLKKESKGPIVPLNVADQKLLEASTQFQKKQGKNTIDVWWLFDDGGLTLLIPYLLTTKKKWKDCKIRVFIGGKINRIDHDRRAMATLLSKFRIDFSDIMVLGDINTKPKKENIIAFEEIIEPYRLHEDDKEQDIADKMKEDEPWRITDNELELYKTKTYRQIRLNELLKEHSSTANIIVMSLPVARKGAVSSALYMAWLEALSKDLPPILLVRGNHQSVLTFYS
# Source text: Cet effet a été étudié selon la méthodologie décrite par G. GARAY et coll. dans Naunyn-Schmidberg's Arch. Pharmakol. […] Pharm.
# [2] = tested on: RAT; assay: Diuretic activity in the rat (hourly urine volume, sodium and potassium assay); assay type: in vivo; settings: po; R = RAT; diuretic activity; read-out: Dose minimale active
# Source text: (§1) d'urine sont déterminés toutes les heures. Le dosage de sodium et du potassium est effectué par spectrophotométrie.
# [3] = tested on: SOURIS; assay: Diuretic activity in the mouse (hourly urine volume, sodium and potassium assay); assay type: in vivo; settings: S = SOURIS, PO, at the dose (minimal active dose)
# Source text: as §1
# [4] = target: T2, ECHANGEUR D'ANIONS (Homo sapiens, UniProt P02730); assay: Anion exchanger of human erythrocytes; assay type: cell-based, ERYTHROCYTES HUMAINS
# T2 construct: systèmes de transport du sodium et du potassium des érythrocytes humains; endogenous in cells; host or cells: human erythrocytes
# T2 sequence (P02730 1-911): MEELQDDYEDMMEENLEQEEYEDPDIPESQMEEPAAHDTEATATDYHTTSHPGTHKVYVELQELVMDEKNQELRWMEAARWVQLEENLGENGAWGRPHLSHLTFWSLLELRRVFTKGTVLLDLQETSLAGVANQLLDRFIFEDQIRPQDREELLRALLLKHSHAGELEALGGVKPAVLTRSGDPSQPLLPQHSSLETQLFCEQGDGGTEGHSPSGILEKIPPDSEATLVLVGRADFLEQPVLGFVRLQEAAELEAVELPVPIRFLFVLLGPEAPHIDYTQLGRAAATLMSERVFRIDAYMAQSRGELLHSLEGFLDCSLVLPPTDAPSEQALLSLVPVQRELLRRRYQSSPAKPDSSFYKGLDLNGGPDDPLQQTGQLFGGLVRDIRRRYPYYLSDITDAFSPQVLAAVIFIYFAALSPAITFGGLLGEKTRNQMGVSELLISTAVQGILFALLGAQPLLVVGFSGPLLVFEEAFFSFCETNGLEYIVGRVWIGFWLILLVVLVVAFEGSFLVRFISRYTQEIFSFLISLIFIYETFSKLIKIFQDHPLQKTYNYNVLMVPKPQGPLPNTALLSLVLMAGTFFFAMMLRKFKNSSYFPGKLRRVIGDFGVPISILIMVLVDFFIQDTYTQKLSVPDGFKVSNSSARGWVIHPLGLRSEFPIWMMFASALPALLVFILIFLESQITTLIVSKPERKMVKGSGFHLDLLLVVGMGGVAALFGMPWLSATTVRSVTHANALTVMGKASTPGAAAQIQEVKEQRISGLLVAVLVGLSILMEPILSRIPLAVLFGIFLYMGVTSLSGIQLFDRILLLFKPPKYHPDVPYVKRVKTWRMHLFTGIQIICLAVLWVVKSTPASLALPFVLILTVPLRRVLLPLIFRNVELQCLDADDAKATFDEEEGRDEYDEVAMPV
# Source text: Cet effet a été étudié selon la méthodologie décrite par G. GARAY et coll. dans Naunyn-Schmidberg's Arch. Pharmakol. 334 (1986) 202-209 et dans Bioch. Pharm. 33 (1984) 2013-2020.
# [5] = tested on: plasmas riches en plaquettes provenant de sang de rat; assay: Platelet anti-aggregation in vitro, ADP-induced (Born aggregometer); assay type: cell-based; settings: in vitro, aggregating agent ADP, rat platelet-rich plasma, 37°; M not defined in the text; mM printed only in the TICLOPIDINE line
# Method: Les études ont été réalisées sur des plasmas riches en plaquettes provenant de sang de rat, l'agrégation étant induite par addition d'acide Adénosine diphosphorique. Les courbes néphélométriques d'agrégation sont obtenues en utilisant un agrégomètre de type BORN, le plasma étant placé en incubation à 37° avec agitation continue de 1100 t/mn (cf. BORN G.V.R et CROSS J. - J. Physiol. 168 (1962) 178.
# [6] = target: T3, lipoxygénase de soja (Glycine max, UniProt P08170); assay: Anti-lipoxygenase action on soybean lipoxygenase; assay type: biochemical
# T3 sequence (P08170 1-839): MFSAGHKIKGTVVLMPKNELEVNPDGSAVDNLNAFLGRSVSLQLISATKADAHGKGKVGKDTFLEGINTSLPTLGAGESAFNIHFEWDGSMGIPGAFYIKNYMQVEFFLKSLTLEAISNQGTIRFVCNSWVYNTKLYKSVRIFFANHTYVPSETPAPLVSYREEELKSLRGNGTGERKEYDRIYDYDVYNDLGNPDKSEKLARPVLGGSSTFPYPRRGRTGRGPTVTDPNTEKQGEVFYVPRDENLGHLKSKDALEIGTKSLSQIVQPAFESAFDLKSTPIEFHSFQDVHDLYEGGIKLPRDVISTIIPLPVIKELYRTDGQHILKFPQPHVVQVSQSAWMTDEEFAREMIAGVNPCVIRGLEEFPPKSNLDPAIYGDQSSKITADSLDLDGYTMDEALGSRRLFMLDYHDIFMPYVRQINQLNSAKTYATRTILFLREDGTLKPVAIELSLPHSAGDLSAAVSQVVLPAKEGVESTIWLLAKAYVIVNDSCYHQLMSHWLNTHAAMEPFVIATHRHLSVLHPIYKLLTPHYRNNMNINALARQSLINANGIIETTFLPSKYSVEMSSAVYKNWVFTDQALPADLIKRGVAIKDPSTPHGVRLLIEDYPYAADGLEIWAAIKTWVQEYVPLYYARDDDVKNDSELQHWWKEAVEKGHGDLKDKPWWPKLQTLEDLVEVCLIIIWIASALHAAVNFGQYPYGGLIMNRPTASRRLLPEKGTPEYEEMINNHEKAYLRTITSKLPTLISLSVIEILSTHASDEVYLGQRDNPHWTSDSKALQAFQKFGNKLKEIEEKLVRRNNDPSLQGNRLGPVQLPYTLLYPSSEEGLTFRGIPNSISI
# Source text: L'action anti-lipoxygénase a été étudiée sur la lipoxygénase de soja selon la méthode décrite par W.L SMITH et W.E LANDS (J. Biol. Chem. 247 (1972) 1038-1047)
smiles,measurement,setting,value
COc1cccc(CCOc2ccc(F)cc2)c1 [ex 169],EFFET SUR LE COTRANSPORT Na-K IC 50,[1],Non actif
same,minimal effective dose,[2],12 mg/kg
same,Pouvoir diurétique en %,[3],Inactif
same,Rapport Na/K en %,[3],Inactif
same,EFFET SUR L'ECHANGEUR D'ANIONS IC 50,[4],Non actif
same,M à 50,[5],inactif
same,ACTIVITE ANTI-LIPOXYGENASE IC 50,[6],Inactif
